Assay results as given in patent US9255110B2 (Hoffmann-La Roche Inc., priority 2010, dated 2016).
Counter-ions that a name gives are not always drawn.

Tests used:
Type in all cases: biochemical
IRAK-4 = IRAK-4 (Homo sapiens (Human), UniProt Q9NWZ3); assay: In vitro IRAK-4 kinase assay; conditions: purified recombinant IRAK-4, 50 uM ATP, 33P peptide phosphorylation
Summary of the method: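 Recombinant IRAK-4 or IRAK-1 incubated with 250 uM synthetic peptide in MOPS pH7.2 kinase buffer with 50 uM ATP, 20 mM MgCl2 and γ-33P ATP for the indicated time. Phosphorylated peptide captured on phosphocellulose, washed with phosphoric acid, quantified by scintillation counting.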

human full length SYK = human full length SYK (Homo sapiens (Human), UniProt P43405); assay: In vitro SYK kinase assay; conditions: 20 uM ATP, 33P peptide phosphorylation
Description: Spleen tyrosine kinase (SYK) is a tyrosine kinase that plays an important role in B cell signal transduction. SYK activity is measured by phosphorylation of a peptide substrate (Biotin-[…]) with [gamma-^33P] ATP. The enzyme reaction was conducted at 20 uM ATP with 0.05 uCi [gamma-^33P]ATP (2 uCi for 40 ul assay) and 10 uM peptide substrate at final volume of 40 ul in buffer containing 50 mM Hepes, pH 7.2, 1 mM dithiothreitol, 10 mM MgCl2, 100 uM Na3VO4, 0.1% BSA and 10% DMSO. The enzyme assay was carried out with human full length SYK in the presence or absence of ten compound concentrations. SYK and compound were pre-incubated for 10 minutes. Then, the enzymatic reaction was initiated by addition of ATP and peptide substrate. The reaction mixture was incubated at room temperature for 30 minutes. At the end of incubation, the reaction was terminated by transferring 25 ul of the reaction mixture to 100 ul of 10% streptavidin slurry containing 100 mM EDTA. The reaction product was captured on the affinity resin and sequentially washed on a filtration plate (Millipore, MABVNOB50) with 2M NaCl, 2M M NaCl in 1% phosphoric acid and water to remove free radio nucleotide. Then the incorporation of ^33P into peptide substrate was quantified on a microplate scintillation counter. Compound inhibition potency on SYK was measured by IC50 value generated from ten concentration inhibition curve fitted into the 3-parameter model: % inhibition=Maximum/(1+(IC50/[Inhibitor])^slope). Data were analyzed on Microsoft Excel for parameter estimation.

IRAK-1 = IRAK-1 (Homo sapiens (Human), UniProt P51617); assay: In vitro IRAK-1 kinase assay; conditions: purified recombinant IRAK-1, 50 uM ATP, 33P peptide phosphorylation
Description: Purified recombinant IRAK-4 protein was incubated with 250 uM synthetic peptide ([…]) in 30 ul of kinase buffer including (20 mM MOPS pH7.2, 25 mM beta glycerol phosphate, 5 mM EGTA, 1 mM sodium orthovanadate, 1 mM DTT, 50 uM ATP, 20 mM MgCl2, 10 uCi γ-^33P, 0.1% BSA) for the indicated time. For purified recombinant IRAK-1 protein kinase assay, 50 uM ATP was used. A 25 ul aliquot of the reaction mixture was transferred on to p81 phosphocellulose squares (Upstate Biotechnology, Lake Placid, N.Y.). The assay squares were washed three times with 0.75% phosphoric acid and once with acetone. Enzyme activity was measured by determining the bound radioactivity by liquid scintillation counting.

Sequence of IRAK-1 (P51617 whole entry, species assumed): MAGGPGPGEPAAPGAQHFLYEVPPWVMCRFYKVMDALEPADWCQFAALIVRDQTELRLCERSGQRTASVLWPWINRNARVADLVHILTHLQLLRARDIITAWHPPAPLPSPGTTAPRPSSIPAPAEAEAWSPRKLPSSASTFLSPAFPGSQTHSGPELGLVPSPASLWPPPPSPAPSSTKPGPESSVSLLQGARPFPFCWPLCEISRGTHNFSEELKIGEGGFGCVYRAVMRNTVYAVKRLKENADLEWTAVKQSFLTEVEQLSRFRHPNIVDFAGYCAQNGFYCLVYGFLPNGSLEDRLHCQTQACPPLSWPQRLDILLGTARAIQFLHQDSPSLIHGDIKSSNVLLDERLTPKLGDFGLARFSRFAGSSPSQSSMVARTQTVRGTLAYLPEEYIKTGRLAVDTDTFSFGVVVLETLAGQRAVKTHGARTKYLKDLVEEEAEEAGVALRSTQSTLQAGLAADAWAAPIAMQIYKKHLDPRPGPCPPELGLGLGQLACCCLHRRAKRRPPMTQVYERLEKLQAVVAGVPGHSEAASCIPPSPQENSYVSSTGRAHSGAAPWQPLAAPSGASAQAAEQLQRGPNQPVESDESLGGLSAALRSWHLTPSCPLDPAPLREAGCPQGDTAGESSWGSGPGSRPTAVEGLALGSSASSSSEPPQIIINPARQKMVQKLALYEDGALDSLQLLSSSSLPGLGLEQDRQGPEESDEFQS
Sequence of IRAK-4 (Q9NWZ3 whole entry, species assumed): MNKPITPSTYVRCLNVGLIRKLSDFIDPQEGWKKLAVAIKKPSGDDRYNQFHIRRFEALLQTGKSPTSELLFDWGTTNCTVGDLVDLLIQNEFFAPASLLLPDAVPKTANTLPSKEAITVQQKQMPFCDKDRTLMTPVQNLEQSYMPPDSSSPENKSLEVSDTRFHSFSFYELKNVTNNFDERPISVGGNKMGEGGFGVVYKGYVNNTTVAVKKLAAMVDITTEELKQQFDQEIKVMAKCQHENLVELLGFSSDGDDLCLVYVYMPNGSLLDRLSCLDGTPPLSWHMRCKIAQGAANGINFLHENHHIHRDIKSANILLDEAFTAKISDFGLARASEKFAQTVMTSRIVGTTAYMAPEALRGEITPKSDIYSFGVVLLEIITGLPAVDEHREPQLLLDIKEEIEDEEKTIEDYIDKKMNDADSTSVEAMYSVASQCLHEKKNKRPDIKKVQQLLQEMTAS

| IC50 (IRAK-4) | IC50 (human full length SYK) | IC50 (IRAK-1) | SMILES |
| --- | --- | --- | --- |
| 10 nM | 17 nM | 712 nM | COc1cc2ncccc2cc1NC(=O)c1csc2cnc(NCCN)nc12 |
| 24 nM | 449 nM | 760 nM | CC(O)CC(C)Oc1cc2ncccc2cc1NC(=O)c1csc2cncnc12 (stereo not shown) |
| 29 nM | 103 nM |  | O=C(Nc1cc2cccnc2cc1OC1CCC(O)CC1)c1cnn2cccnc12 (stereo not shown) [Example 23] |
| 35 nM | 746 nM |  | COc1cc2ncccc2cc1NC(=O)c1csc2cc(CO)cnc12 [Example 30, 6-Hydroxymethyl-thieno[3,{tildeover (2)}beta] pyridine-3-carboxylic acid (7-methoxy-quinolin-6-yl)-amide] |
| 49 nM | 478 nM |  | O=C1Cc2cc(N3CCC(CO)CC3)c(NC(=O)c3cnn4cccnc34)cc2N1 [Example 34, Pyrazolo[1,5-alpha]pyrimidine-3-carboxylic acid [5-(4-hydroxymethyl-piperidin-1-yl)-2-oxo-2,3-dihydro-1H-indol-6-yl]-amide] |
| 63 nM | 492 nM |  | COc1cc2ncccc2cc1NC(=O)c1csc2cnc(N[C@H](C)CO)nc12 [Example 39, 2-(2-Hydroxy-1-methyl-ethylamino)-thieno[3,2-d]pyrimidine-7-carboxylic acid (7-methoxy-quinolin-6-yl)-amide] |
| 69 nM | 500 nM |  | NC(=O)C1CCN(c2ccc(Cl)cc2NC(=O)c2cnn3cccnc23)CC1 [Example 40, Pyrazolo[1,5-alpha]pyrimidine-3-carboxylic acid [2-(4-carbamoyl-piperidin-1-yl)-5-chloro-phenyl]-amide] |
| 74 nM | 810 nM | 575 nM | COc1cc2ncccc2cc1NC(=O)c1csc2cnc(NC3CC3)nc12 [Example 43, 2-Cyclopropylamino-thieno[3,2-d]pyrimidine-7-carboxylic acid (7-methoxy-quinolin-6-yl)-amide] |
| 76 nM | 216 nM |  | COc1cc2ncccc2cc1NC(=O)c1csc2cnc(NCCO)nc12 [Example 45, 2-(2-Hydroxy-ethylamino)-thieno[3,2-d]pyrimidine-7-carboxylic acid (7-methoxy-quinolin-6-yl)-amide] |
| 103 nM | 376 nM | 529 nM | NCCCOc1cc2ncccc2cc1NC(=O)c1csc2cncnc12 [Example 51, Thieno[3,2-d]pyrimidine-7-carboxylic acid [7-(3-amino-propoxy)-quinolin-6-yl]-amide] |
| 107 nM | 350 nM | 813 nM | COc1ccc(Cl)cc1NC(=O)c1csc2cnc(NCCN)nc12 [Example 53] |
| 124 nM | 628 nM | 817 nM | O=C(Nc1cc2ccccc2cc1OC1CCC(O)CC1)c1cnn2cccnc12 (stereo not drawn) [Example 55, Pyrazolo[1,5-alpha]pyrimidine-3-carboxylic acid [3-(4-hydroxy-cyclohexyloxy)-napthalen-2-yl]-amide] |
| 167 nM |  | 800 nM | NCC1CCN(c2ccc(Cl)cc2NC(=O)c2csc3cncnc23)CC1 [Example 64, Thieno[3,2-d]pyrimidine-7-carboxylic acid [2-(4-aminomethyl-piperidin-1-yl)-5-chloro-phenyl]-amide] |
| 338 nM |  | 600 nM | O=C(Nc1cc(Cl)ccc1O[C@H]1CC[C@H](O)CC1)c1csc2cncnc12 [Example 81, Thieno[3,2-d]pyrimidine-7-carboxylic acid [5-chloro-2-(4-hydroxy-cyclohexyloxy)-phenyl]-amide] |
| 361 nM | 656 nM |  | O=C(Nc1cc(Cl)ccc1OC1CCC(O)C1)c1cnn2cccnc12 (stereo not drawn) [Example 83, Pyrazolo[1,5-alpha]pyrimidine-3-carboxylic acid [5-chloro-2-(3-hydroxy-cyclopentyloxy)-phenyl]-amide] |
| 459 nM | 806 nM |  | O=C(Nc1cc(Cl)ccc1OC1CCC(O)CC1)c1cnn2cccnc12 (stereo not drawn) [Example 90, Pyrazolo[1,5-alpha]pyrimidine-3-carboxylic acid [5-chloro-2-(4-hydroxy-cyclohexyloxy)-phenyl]-amide] |

| SMILES | IC50 (IRAK-4) | IC50 (human full length SYK) | IC50 (IRAK-1) |
| --- | --- | --- | --- |
| O=C(Nc1cc2cccnc2cc1O[C@@H]1CC[C@H](O)C1)c1csc2cncnc12 [Example 54, hydrochloride] | 122 nM | 500 nM |  |
